Results on 13 molecules are retold here after patent US10934297B2, “5-heteroaryl substituted indazole-3-carboxamides and preparation and use thereof” (Samumed, LLC, priority 2018, dated 2021).

In assay [1] the test system is Wnt activity (Sp5-Luc reporter in SW480 cells). Description: Screening assay for Wnt activity: Sp5-Luc reporter gene assay in SW480 colon carcinoma cells. It is filed as cell-based, human. The following applies: Homo sapiens, 36 to 48 hours. Summed up:
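EC50 values come from a variable-slope four-parameter fit of luminescence normalized to DMSO-only wells. The read-out follows 36–48 h incubation at 37 °C, 5% CO2, in DMEM containing 1% fetal bovine serum. Cells are hygromycin-selected SW480 stably expressing firefly luciferase under a Wnt-responsive Sp5 promoter (eight TCF/LEF sites).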
A general note: Reporter assays use an easily measured gene product as a stand-in for the process of interest.

The target in another assay is DYRK1A kinase (Homo sapiens (Human), UniProt Q13627). Description: DYRK1A kinase assay (Ser/Thr 18 peptide Z-lyte FRET). It is filed as biochemical. The following applies: read-out: EC50 (method: IC50). Summed up:
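Kinase reactions with compound ran 1 h at room temperature in duplicate, and development reagent was then added for another hour.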

Another assay concerns the target GSK3β kinase (Homo sapiens (Human), UniProt P49841). Description: GSK3β kinase assay (Ser/Thr 09 peptide Z-lyte FRET). It is filed as biochemical. The following applies: read-out: EC50 (method: IC50). The method, boiled down: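 Non-radioactive Z-lyte FRET read-out, kinase activity expressed as coumarin/fluorescein emission ratio. Compounds incubated with the reaction mixture one hour at room temperature in duplicate, then development buffer added for another hour. IC50 from non-linear regression of dose-response curves.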

In assay [2] the test system is SW480 colon carcinoma cells. Description: Cell viability assay (CellTiter-Glo) in SW480 colon carcinoma cells. It is filed as cell-based, human. To be noted: Homo sapiens, 96 h, four days. Summed up: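 Viability was taken from CellTiter-Glo ATP luminescence, read about 12 min after reagent addition, relative to DMSO controls. The cells were Sp5-Luc reporter SW480 colon carcinoma cells, 2,000/well in 1% FBS DMEM, exposed to compound for four days at 37 °C.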
On the technique in general: ATP-based viability assays read luminescence as a measure of living cells.

Assay [3] has as its system primary human fibroblasts derived from IPF patients (LL29 cells). Description: Inhibition of the fibrotic process: αSMA staining in TGF-β1 treated LL29 fibroblasts. It is filed as cell-based. The following applies: Homo sapiens, Fibroblast, 96 h; LL29 cells, TGF-β1 20 ng/mL, 4 days, % αSMA positive cells. Summed up:
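LL29 fibroblasts from IPF patients, in F12 medium with 1% FBS, treated with TGF-β1 plus compound; TGF-β1 with DMSO as positive control, DMSO alone as negative control. After 4 days' incubation, SYTOX green nucleic acid stain added at 1 μM final, 30 min at room temperature.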

The test system of a further assay is IL-6. Description: IL-6 inhibition in LPS-stimulated human peripheral blood mononuclear cells (HTRF). It is filed as cell-based. The following applies: Homo sapiens, PBMC; for EC50: huPBMCs, LPS 50 ng/mL, 22 hours, IL-6 HTRF; for inhibition at 10 µM: read-out: percent inhibition at 10 μM. Summed up: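 HTRF 665/620 nm ratio, read after 3 h antibody incubation at room temperature, quantified IL-6 released by fresh human PBMCs (1×10e6 cells/mL, 1% FBS-RPMI). The cells got compound, then 50 ng/mL LPS at 2 h, followed by a further 22 h at 37° C. EC50 came from DMSO-normalized readings run in duplicate.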
(Time-resolved FRET reads energy transfer from a long-lived donor to a nearby acceptor.)

In assay [4] the test system is primary human mesenchymal stem cells (hMSCs). Description: Tenocyte differentiation assay (SCXA-positive cells) in hMSCs. It is filed as cell-based. The following applies: for EC50: Homo sapiens, Mesenchymal stem cells, 96 h, hMSCs, 4 days, SCXA positive cells; for percent in parentheses under EC50 >100: given for EC50 >100 μM, meaning not defined in this example. An excerpt: Representative compounds were screened using primary human mesenchymal stem cells (hMSCs) to determine their ability to induce tenocyte differentiation (process by which tendon is developed).
Primary human mesenchymal stem cells (hMSCs) were purchased from Lonza (Walkersville, Md.) and expanded in Mesenchymal Stem Cell Growth Media (Lonza). Cells between passage 3 and 6 were used for the experiments.
Cells were fixed using 4% formaldehyde (Electron Microscopy Sciences), and stained with anti-Sclerasis (anti-SCXA) antibodies (Abgent, San Diego, Calif.) [Webb S., et.al., Retinoic acid receptor signaling preserves tendon stem cell characteristics and prevents spontaneous differentiation in vitro, Stem Cell Research & Therapy 2016, 7:45] overnight at 4° C. […] Number of cells positive for SCXA in each well was quantified using the CellInsight CX5. Data was normalized to the average of 12 DMSO treated wells on the same plate using Dotmatics Studies module. The normalized averages (fold change over DMSO) of 3 replicate wells for each compound concentration were calculated. Due to solubility limitations of some of the compounds, values for higher doses were manually corrected and curve fitting and EC50 determinations were performed using Dotmatics Studies.

The term EC50 denotes the concentration needed to bring the measured effect to its halfway point. A word on the IC50: it is the concentration at which inhibition is half-maximal. As usually defined, the inhibition is the drop in the measured response relative to a control, in per cent.

GSK3β kinase, sequence (P49841 whole entry): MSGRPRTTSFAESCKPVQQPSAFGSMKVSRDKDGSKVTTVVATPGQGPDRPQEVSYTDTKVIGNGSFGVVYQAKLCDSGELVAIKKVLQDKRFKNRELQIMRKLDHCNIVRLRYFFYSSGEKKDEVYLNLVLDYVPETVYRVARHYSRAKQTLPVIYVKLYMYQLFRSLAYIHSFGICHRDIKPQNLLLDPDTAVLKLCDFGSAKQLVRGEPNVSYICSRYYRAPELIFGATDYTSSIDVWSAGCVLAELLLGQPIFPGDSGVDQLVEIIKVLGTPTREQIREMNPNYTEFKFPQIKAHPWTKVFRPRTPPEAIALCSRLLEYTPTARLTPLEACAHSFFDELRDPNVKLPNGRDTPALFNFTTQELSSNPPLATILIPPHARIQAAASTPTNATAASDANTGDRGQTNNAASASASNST

On to `CN1CCC(n2cc(-c3ccc4[nH]nc(C(=O)Nc5ccc(OC(F)F)nc5)c4c3)cn2)CC1` [Compound 88, N-(6-(Difluoromethoxy)pyridin-3-yl)-5-(1-(1-methylpiperidin-4-yl)-1H-pyrazol-4-yl)-1H-indazole-3-carboxamide], for which the EC50 in assay [1] came to 435 nM; in assay [2] it was 338 nM; in assay [3], 624 nM; with IL-6, 8780 nM; in assay [4], 2550 nM. In addition, the 50% inhibitory concentration (IC50) at DYRK1A kinase was 16 nM; on GSK3β kinase, 774 nM.

As for `CC(C)CN1CC[C@H](NC(=O)c2n[nH]c3ccc(-c4cnn(C5CC5)c4)cc23)[C@@H](F)C1` [Compound 99, 5-(1-Cyclopropyl-1H-pyrazol-4-yl)-N-((3 S,4S)-3-fluoro-1-isobutylpiperidin-4-yl)-1H-indazole-3-carboxamide], the EC50 in assay [1] was determined as 840 nM; in assay [2] it was 5180 nM; in assay [3] it was 855 nM; in the assay with IL-6, 3280 nM; in assay [4] it was 2830 nM. The IC50 on DYRK1A kinase was 813 nM; at GSK3β kinase, 68 nM.

`Cc1ncc(-c2ccc3[nH]nc(C(=O)N[C@H]4CCN(CC(C)C)C[C@@H]4F)c3c2)n1C` [Compound 100, 5-(1,2-Dimethyl-1H-imidazol-5-yl)-N-((3 S,4 S)-3-fluoro-1-isobutylpiperidin-4-yl)-1H-indazole-3-carboxamide]: the EC50 is 1020 nM in assay [1]; 8020 nM in assay [2]; 2360 nM in assay [3]; > 10000 nM with IL-6; 1880 nM in assay [4]. Besides, the IC50 on DYRK1A kinase is 46 nM; on GSK3β kinase, 43 nM. Moreover, in the assay with IL-6, the inhibition at 10 µM was found to be 5.5%.

Consider `Cn1cc(-c2cc(F)c3[nH]nc(C(=O)NC4CCN(CC(F)F)CC4)c3c2)cn1` [Compound 101, N-(1-(2,2-Difluoroethyl)piperidin-4-yl)-7-fluoro-5-(1-methyl-1H-pyrazol-4-yl)-1H-indazole-3-carboxamide], for which the EC50 in assay [1] was > 10000 nM; in assay [2], > 10000 nM; in assay [3], > 10000 nM; in the assay with IL-6, > 10000 nM; in assay [4], > 100000 nM. For the same molecule, the IC50 amounted to 408 nM on DYRK1A kinase and 86 nM at GSK3β kinase. Also, in the assay with IL-6, the inhibition at 10 µM stood at 14.1%. In addition, the “percent in parentheses under EC50 >100” value in assay [4] was “(33.0%)”.

Consider `Cn1cc(-c2ccc3[nH]nc(C(=O)NCC(F)(F)CN4CCCC4)c3c2)cn1` [Compound 106, N-(2,2-Difluoro-3-(pyrrolidin-1-yl)propyl)-5-(1-methyl-1H-pyrazol-4-yl)-1H-indazole-3-carboxamide], for which the EC50 in assay [1] is 685 nM; in assay [2], > 10000 nM; in assay [3], 795 nM; with IL-6, 6850 nM; in assay [4], 1300 nM. Moreover, the IC50 at DYRK1A kinase is 40 nM; at GSK3β kinase it was 14 nM.

For `Cn1cc(-c2cc(F)c3[nH]nc(C(=O)Nc4ccc(CN5CCCC5)cc4)c3c2)cn1` [Compound 119, 7-Fluoro-5-(1-methyl-1H-pyrazol-4-yl)-N-(4-(pyrrolidin-1-ylmethyl)phenyl)-1H-indazole-3-carboxamide], the EC50 in assay [1] came out at 3060 nM; in assay [2] it was 1870 nM; in assay [3], 315 nM; in the assay with IL-6, 1930 nM; in assay [4] it was 14000 nM. For the same molecule, the IC50 is 21 nM on DYRK1A kinase and 41 nM on GSK3β kinase.

Regarding `CN1CCC(Oc2ccc(NC(=O)c3n[nH]c4ccc(-c5cnn(C)c5)cc34)cc2)CC1` [Compound 122, 5-(1-Methyl-1H-pyrazol-4-yl)-N-(4-((1-methylpiperidin-4-yl)oxy)phenyl)-1H-indazole-3-carboxamide], the half-maximal effective concentration (EC50) is 205 nM in assay [1]; 380 nM in assay [2]; 2640 nM in assay [3]; 948 nM in the assay with IL-6; > 100000 nM in assay [4]. Further, the IC50 at DYRK1A kinase was determined as 2 nM; at GSK3β kinase it was 38 nM. Besides, in assay [4], the “percent in parentheses under EC50 >100” value is on record as “(37.4%)”.

On to `CN1CCC(Oc2ccc(NC(=O)c3n[nH]c4ccc(-c5cnn(C)c5)cc34)cn2)CC1` [Compound 124, 5-(1-Methyl-1H-pyrazol-4-yl)-N-(6-((1-methylpiperidin-4-yl)oxy)pyridin-3-yl)-1H-indazole-3-carboxamide], for which the EC50 in assay [1] was 140 nM; in assay [2], 170 nM; in assay [3] it was 101 nM; with IL-6, 989 nM; in assay [4], 315 nM. In addition, the IC50 on DYRK1A kinase turned out to be 1 nM; at GSK3β kinase it was 23 nM.

On to `CN1CCC(n2cc(-c3ccc4[nH]nc(C(=O)Nc5cncc(F)c5)c4c3)cn2)CC1` [Compound 125, N-(5-Fluoropyridin-3-yl)-5-(1-(1-methylpiperidin-4-yl)-1H-pyrazol-4-yl)-1H-indazole-3-carboxamide], for which the concentration giving a half-maximal response (EC50) in assay [1] was 355 nM; in assay [2], 664 nM; in assay [3], 599 nM; with IL-6, 3520 nM; in assay [4] it was > 100000 nM. For the same molecule, the IC50 at DYRK1A kinase came to 8 nM; at GSK3β kinase, 278 nM. Moreover, the “percent in parentheses under EC50 >100” value in assay [4] was “(12.3%)”.

Turning to `CN1CCC(n2cc(-c3cc4c(C(=O)Nc5cncc(F)c5)n[nH]c4cc3F)cn2)CC1` [Compound 126, 6-Fluoro-N-(5-fluoropyridin-3-yl)-5-(1-(1-methylpiperidin-4-yl)-1H-pyrazol-4-yl)-1H-indazole-3-carboxamide], the EC50 in assay [1] came to 335 nM; in assay [2], 1530 nM; in assay [3], 2450 nM; with IL-6 it was 5780 nM; in assay [4], 2590 nM. The figures for the half-maximal inhibitory concentration (IC50) at DYRK1A kinase and at GSK3β kinase were 9 nM and 237 nM, respectively.

Regarding `Cc1ncc(NC(=O)c2n[nH]c3cc(F)c(-c4cnn(C5CCN(C)CC5)c4)cc23)s1` [Compound 127, 6-Fluoro-5-(1-(1-methylpiperidin-4-yl)-1H-pyrazol-4-yl)-N-(2-methylthiazol-5-yl)-1H-indazole-3-carboxamide], the EC50 in assay [1] was found to be 100 nM; in assay [2], 93 nM; in assay [3] it was 48 nM; in the assay with IL-6, 786 nM; in assay [4], 2490 nM. For the same molecule, the IC50 is 4 nM at DYRK1A kinase and 245 nM on GSK3β kinase.

For `CNC(=O)c1ccc(NC(=O)c2n[nH]c3ccc(-c4cnn(C5CCN(C)CC5)c4)cc23)cn1` [Compound 128, N-(6-(Methylcarbamoyl)pyridin-3-yl)-5-(1-(1-methylpiperidin-4-yl)-1H-pyrazol-4-yl)-1H-indazole-3-carboxamide], the EC50 is 180 nM in assay [1]; 493 nM in assay [2]; 439 nM in assay [3]; 3280 nM in the assay on IL-6; 5720 nM in assay [4]. The IC50 on DYRK1A kinase turned out to be 5 nM; on GSK3β kinase it was 633 nM.

In the case of `CN1CCC(Oc2ccc(NC(=O)c3n[nH]c4c(F)cc(-c5cnn(C)c5)cc34)cn2)CC1` [Compound 129, 7-Fluoro-5-(1-methyl-1H-pyrazol-4-yl)-N-(6-((1-methylpiperidin-4-yl)oxy)pyridin-3-yl)-1H-indazole-3-carboxamide], the EC50 is 6120 nM in assay [1]; 3020 nM in assay [2]; 1840 nM in assay [3]; 6770 nM with IL-6; > 100000 nM in assay [4]. Besides, the figures for the IC50 on DYRK1A kinase and on GSK3β kinase were 30 nM and 87 nM, respectively. Further, the “percent in parentheses under EC50 >100” value in assay [4] was “(13.0%)”.
